Experiment [1] deals with HT29 cells. Description: DCFDA cellular ROS detection assay. Format: cell-based. The following applies: complexes at IC50, TBHP 20 µM. The protocol:
(§1) DCFDA/H2DCFDA-cellular ROS Assay Kit (Abcam, Cambridge, MA, USA) was used to investigate the production of ROS in treated cells, as previously described. MDA−MB−231 or HT29 cells were seeded at a total concentration of 2500 cells/well in 96-well plates and incubated overnight. DMEM was then removed, and cells washed with 1× kit buffer, and stained with 25 µM 2′,7′-dichlorofluorescein diacetate (DCFH-DA) for 45 min. […] After that, the plates were scanned using the Glo-Max®-Multimode microplate reader (Promega Corporation, Alexandra, VIC, Australia) at an excitation/emission of 485/535 nm to detect fluorescence (relative fluorescence units, or RFU) at various time points. A positive control was generated using 20 µM tert-butyl hydroperoxide (TBHP), and the same procedure was applied with DCFDA. Three independent experiments in triplicates were implemented.

Experiment [2] deals with MDA−MB−231 cells. As to the kind of experiment: DCFDA cellular ROS detection assay. Format: cell-based. The following applies: complexes at IC50, TBHP 20 µM. Here is the method: as §1
The test system of experiment [3] is HT29 cells. As to the kind of experiment: TMRE mitochondrial membrane potential assay. Format: cell-based. The note with it: complexes at IC50, FCCP 20 µM. The protocol: (§2) Cells were then treated with an IC50 drug concentration for each complex. At 24, 48 or 72 h, DMEM was removed, and cells were washed with PBS. Then, cells were incubated with 1 µM tetramethylrhodamine, ethyl ester (TMRE) stain for 30 min. TMRE was then removed, and cells were washed twice with PBS (0.2% BSA), after which phenol red-free media was added. […] The cells were then stained with TMRE, as described above, and the resulting solution was scanned for fluorescence. Three independent experiments in triplicates were implemented.

The subject of experiment [4] is MDA−MB−231 cells. As to the kind of experiment: TMRE mitochondrial membrane potential assay. Format: cell-based. The note with it: complexes at IC50, FCCP 20 µM. The protocol: as §2
Experiment [5] has as its system HT29 cells. As to the kind of experiment: Label-free quantitative proteomics. The note with it: HT29, IC50, 72 h. Format: cell-based, Homo Sapiens. Here is the method:
(§3) The supernatant was then collected into 15 mL tubes, then the cells were washed with PBS and trypsinised. The detached cells were transferred to allocated tubes and centrifuged at 500× g for 5 min at 4 °C. Cell pellet was washed twice with PBS and then resuspended in 300 µL cell lysis buffer (RIPA) for 30 min on ice. Cell extracts were then centrifuged at 12,000× g for 15 min at 4 °C, and the supernatants (containing the proteins) were collected into Lo-Bind Eppendorf. The Bio-Rad protein assay (Bio-Rad, Hercules, CA, USA) was used to assess protein content. For protein extraction and delipidation 100 µL of the cell homogenate was moved to 1.7 mL Lo-Bind Eppendorf tubes and 450 µL methanol was added to the mixture and vortexed. Chloroform (150 µL) was next added and vortexed. Then, water (450 µL) was added to the mixture, vortexed and centrifuged for 5 min at 12,000× g, which formed the protein pellet at the organic/aqueous interface. The layer of chloroform was removed and then 400 µL of methanol was added. The sample was then vortexed and centrifuged at 12,000× g for 15 min. The supernatant was then aspirated and discarded. The pellet was then washed with methanol (400 µL). The supernatant was removed, and the pellets were air-dried overnight. Next, steps were performed for reduction, alkylation, and tryptic digestion of the protein. 0.1% RapiGest (Waters, Milford, MA, USA) in 50 mM aqueous ammonium bicarbonate (20 µL) was added to the air-dried pellet and vortexed for effective suspension. The pellet should completely dissolve. Then, 50 µL of 7 mM DTT in 50 mM aqueous ammonium bicarbonate was added, to give a final concentration of 5 mM DTT. Samples were then heated for 30 min at 60 °C and cooled to room temperature. Iodoacetamide (45 mM) in 50 mM aqueous ammonium bicarbonate was next added to give a concentration of 15 mM. The mixture was allowed to react in the dark for 30 min. Then, 10 ng/µL of Trypsin Gold, Mass spectrometry grade (Promega, NSW, Australia) was added for digestion to occur at room temperature overnight. And 50 µL of 4% (v/v) aqueous trifluoroacetic acid was then added to each tube. Samples were next heated for 45 min at 37 °C to effect decomposition of RapiGest. Samples were then centrifuged at 12,000× g for 10 min at 4 °C. Supernatants were then transferred to total recovery vials and run on a nanoAcquity Ultra-Performance Liquid Chromatography (UPLC) coupled with a Synapt G2-Si instrument (Waters, MA, USA) was used for label-free quantitative protein profiling. Nano-proteomics method is detailed in Method S1. Three independent experiments in triplicates were implemented, while all samples were analysed in a single run with a single injection (1 µL) for each trial. Mass spectrometry (MS) data were processed using Progenesis QI for proteomics (version 4.1, Nonlinear Dynamics, Newcastle upon Tyne, UK), and aligned using UniProt Homo Sapiens reference database IDEP9.6 utilised to cluster and retrieve the initial signature analyses. […] Enrichment studies were performed using gene lists that corresponded to the identified proteins. Overrepresentation analysis was performed based on Gene Ontology (GO) Biological Processes, GO Cellular Components, and GO Molecular Functions using iDEP. Enrichment maps and STRING apps were used to construct pathways networks and explore protein–protein interactions.

For experiment [6], the system named is MDA−MB−231 cells. Description: Label-free quantitative proteomics. The note with it: MDA−MB−231, IC50, 72 h, p < 0.05, fold change > 2. Format: cell-based, Homo Sapiens. Here is the method: as §3

Turning to `N[C@H]1CCCC[C@@H]1N.O=[N+]([O-])[O-].O=[N+]([O-])[O-].[Pt+2].c1cnc2c(c1)ccc1cccnc12` [[Pt(1,10-phenanthroline)(1S,2S-diaminocyclohexane)](NO3)2], the ROS production in the experiment on HT29 cells [1] (HT29, 24 h) was found to be 219.00 RFU; in the experiment on HT29 cells [1] (HT29, 48 h), 256.22 RFU; in the experiment on HT29 cells [1] (HT29, 72 h), 273.00 RFU; with MDA−MB−231 cells [2] (MDA−MB−231, 24 h), 234.82 RFU; with MDA−MB−231 cells [2] (MDA−MB−231, 48 h), 285.31 RFU; with MDA−MB−231 cells [2] (MDA−MB−231, 72 h), 297.81 RFU. The “MtMp (mitochondrial membrane potential)” value was determined as 321.85 RFU with HT29 cells [3] (HT29, 24 h); 256.63 RFU in the experiment on HT29 cells [3] (HT29, 48 h); 236.73 RFU with HT29 cells [3] (HT29, 72 h); 258.17 RFU with MDA−MB−231 cells [4] (MDA−MB−231, 24 h); 218.19 RFU with MDA−MB−231 cells [4] (MDA−MB−231, 48 h); 169.95 RFU in the experiment on MDA−MB−231 cells [4] (MDA−MB−231, 72 h). Besides, the “number of downregulated differentially expressed proteins” value in the experiment on HT29 cells [5] (p < 0.05, fold change > 2) came out at 10; in the experiment on MDA−MB−231 cells [6] it was 7. The “number of upregulated differentially expressed proteins” value in the experiment on HT29 cells [5] (p < 0.05, fold change > 2) is 9; in the experiment with MDA−MB−231 cells [6], 14.
For `Cc1cc2cccnc2c2ncccc12.N[C@H]1CCCC[C@@H]1N.O=[N+]([O-])[O-].O=[N+]([O-])[O-].[OH][Pt+2][OH]` [Pt^IV5MESS(OH)2, [Pt(5-methyl-1,10-phenanthroline)(1S,2S-diaminocyclohexane)(dihydroxy)](NO3)2], the ROS production with HT29 cells [1] (HT29, 24 h) worked out at 234.55 RFU; in the experiment with HT29 cells [1] (HT29, 48 h) it was 278.33 RFU; with HT29 cells [1] (HT29, 72 h) it was 296.67 RFU; in the experiment with MDA−MB−231 cells [2] (MDA−MB−231, 24 h), 245.26 RFU; in the experiment on MDA−MB−231 cells [2] (MDA−MB−231, 48 h), 264.00 RFU; with MDA−MB−231 cells [2] (MDA−MB−231, 72 h), 314.78 RFU. For the same compound, the “MtMp (mitochondrial membrane potential)” value is 304.45 RFU with HT29 cells [3] (HT29, 24 h); 224.23 RFU in the experiment on HT29 cells [3] (HT29, 48 h); 198.24 RFU with HT29 cells [3] (HT29, 72 h); 250.80 RFU in the experiment on MDA−MB−231 cells [4] (MDA−MB−231, 24 h); 201.07 RFU in the experiment on MDA−MB−231 cells [4] (MDA−MB−231, 48 h); 155.85 RFU in the experiment with MDA−MB−231 cells [4] (MDA−MB−231, 72 h). Further, in the experiment on HT29 cells [5], the “detected up and down differentially regulated proteins” value turned out to be 3. In addition, the “number of downregulated differentially expressed proteins” value with MDA−MB−231 cells [6] amounted to 33. The “number of upregulated differentially expressed proteins” value in the experiment on MDA−MB−231 cells [6] is given as 38.
